Measurements: US11713335B2, “Aminocoumarin compounds and methods of their use” (President and Fellows of Harvard College, priority 2018, dated 2023)
Converted amounts (≈) assume the structure as drawn. Read-outs that look alike come from different tables or passages of the source.

Columns and labels:
E. coli MC4100 = assay: Minimal inhibitory concentration, E. coli MC4100; type: cell-based; conditions: 16 hour minimal inhibitory concentration at 37° C., read-out: MIC (μM) E. coli MC4100 ara+
Procedure, shortened: (§1)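 Broth microdilution, 2-fold series from DMSO stock; inoculum = saturated overnight culture (LB; TSA for S. aureus) diluted 1:100 then 1:100. 37 °C, 16 h, no shaking. OD600 read-out; MIC = lowest conc. inhibiting growth (µM).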

K. pneumoniae 700721 = assay: Minimal inhibitory concentration, K. pneumoniae 700721; type: cell-based; conditions: 16 hour minimal inhibitory concentration at 37° C., read-out: MIC (μM) K. pneumoniae 700721
Procedure, shortened: as §1

S. aureus MW2 = assay: Minimal inhibitory concentration, S. aureus MW2; type: cell-based; conditions: 16 hour minimal inhibitory concentration at 37° C., read-out: MIC (μM) S. aureus MW2 (MRSA)
Procedure, shortened: as §1

WT E. coli = assay: Minimal inhibitory concentration in wild-type E. coli; type: cell-based, Escherichia coli; conditions: wild-type E. coli, 37° C., 16 hours, read-out: MIC (μM) in WT E. coli
Experimental: General Procedure for Determination of Minimal Inhibitory Concentrations
Overnight cultures (5 mL) of bacterial strains were grown in LB media or TSA media (for S. aureus) at 37° C. and with shaking at 220 rpm until saturation. The overnight culture was diluted serially 1:100 (50 μL in 5 mL sterile media) and then 1:100 (250 μL in 25 mL sterile media). The 25 mL of diluted culture was then dispensed to a sterile 96 well plate (Corning #3370). 198 μL of culture were dispensed into row A and 100 μL of this culture were dispensed into rows B-H. Aminocoumarin compound (DMSO stock) were added to the first row and then the row was mixed by pipetting. 100 μL of culture from row A were transferred to row B and the serial dilution continued until the final 100 μL from row H were discarded. The plate was incubated without shaking in a 37° C. for 16 hours and then read by visible light spectrophotometer (Molecular Devices) at 600 nm. The minimal inhibitory concentration (MIC) was determined as the lowest concentration of compound concentration that inhibited the growth of bacteria.

E. cloacae 13047 = assay: Minimal inhibitory concentration, E. cloacae 13047; type: cell-based; conditions: 16 hour minimal inhibitory concentration at 37° C., read-out: MIC (μM) E. cloacae 13047
Procedure, shortened: as §1

E. coli 25922 = assay: Minimal inhibitory concentration, E. coli 25922; type: cell-based; conditions: 16 hour minimal inhibitory concentration at 37° C., read-out: MIC (μM) E. coli 25922
Procedure, shortened: as §1

A. baumannii 19606 = assay: Minimal inhibitory concentration, A. baumannii 19606; type: cell-based; conditions: 16 hour minimal inhibitory concentration at 37° C., read-out: MIC (μM) A. baumannii 19606
Procedure, shortened: as §1

S. aureus RN4220 = assay: Minimal inhibitory concentration, S. aureus RN4220; type: cell-based; conditions: 16 hour minimal inhibitory concentration at 37° C., read-out: MIC (μM) S. aureus RN4220
Procedure, shortened: as §1

[1] = Staphylococcus aureus, MRSA, 16 h
[2] = Acinetobacter baumannii, 19606, 16 h
[3] = Staphylococcus aureus, RN4220, 16 h

Row | Compound | MIC (E. coli MC4100; Escherichia coli, MC4100, 16 h) [µM] | MIC (K. pneumoniae 700721; Klebsiella pneumoniae, 700721) [µM] | MIC (S. aureus MW2; [1]) [µM] | MIC (WT E. coli; Escherichia coli) [µM] | MIC (E. cloacae 13047; Enterobacter cloacae, 13047) [µM] | MIC (E. coli 25922; Escherichia coli, 25922, 16 h) [µM] | MIC (A. baumannii 19606; [2]) [µM] | MIC (S. aureus RN4220; [3]) [µM] | MIC (E. coli MC4100) [µM] | MIC (K. pneumoniae 700721) [µM] | MIC (S. aureus MW2) [µM] | MIC (WT E. coli) [µM] | MIC (E. cloacae 13047) [µM] | MIC (E. coli 25922) [µM] | MIC (A. baumannii 19606) [µM] | MIC (S. aureus RN4220) [µM]
1 | CO[C@@H]1[C@@H](OC(N)=O)[C@@H](O)[C@H](Oc2ccc3c(O)c(NC(=O)c4cccc(-c5ccc(F)cc5)c4)c(=O)oc3c2C)OC1(C)C [Compound 28] | 26 (≈ 16.2 µg/mL) | 80 (≈ 49.8 µg/mL) | 5 (≈ 3.11 µg/mL) | 26 (≈ 16.2 µg/mL) | 161 (≈ 100 µg/mL) | 40 (≈ 24.9 µg/mL) | > 50 | 5 (≈ 3.11 µg/mL) | – | – | – | – | – | – | – | –
2 | CO[C@@H]1[C@@H](OC(N)=O)[C@@H](O)[C@H](Oc2ccc3c(O)c(NC(=O)c4ccccc4-c4ccccc4)c(=O)oc3c2C)OC1(C)C [Compound 40] | > 100 | > 100 | 41 (≈ 24.8 µg/mL) | > 300 | > 100 | > 200 | > 50 | 41 (≈ 24.8 µg/mL) | – | – | – | – | – | – | – | –
3 | CO[C@@H]1[C@@H](OC(N)=O)[C@@H](O)[C@H](Oc2ccc3c(O)c(NC(=O)c4cccc(C5CCCCC5)c4)c(=O)oc3c2C)OC1(C)C [Compound 62] | – | – | – | – | – | – | – | – | 59 (≈ 36 µg/mL) | 82 (≈ 50.1 µg/mL) | 3 (≈ 1.83 µg/mL) | 59 (≈ 36 µg/mL) | >100 | 82 (≈ 50.1 µg/mL) | >50 | 5 (≈ 3.05 µg/mL)
4 | CO[C@@H]1[C@@H](OC(N)=O)[C@@H](O)[C@H](Oc2ccc3c(O)c(NC(=O)c4cccc(S(F)(F)(F)(F)F)c4)c(=O)oc3c2C)OC1(C)C [Compound 26] | > 200 | > 100 | > 100 | > 300 | > 100 | > 200 | > 50 | > 100 | – | – | – | – | – | – | – | –
5 | CO[C@@H]1[C@@H](OC(N)=O)[C@@H](O)[C@H](Oc2ccc3c(O)c(NC(=O)c4cccc(-c5ccc(O)c(O)c5)c4)c(=O)oc3c2C)OC1(C)C [Compound 94] | – | – | – | – | – | – | – | – | >200 | >100 | 20 (≈ 12.7 µg/mL) | >300 | >100 | >200 | >50 | 20 (≈ 12.7 µg/mL)
6 | CO[C@@H]1[C@@H](OC(N)=O)[C@@H](O)[C@H](Oc2ccc3c(O)c(NC(=O)c4cccc(-c5ccccc5[N+](=O)[O-])c4)c(=O)oc3c2C)OC1(C)C [Compound 64] | – | – | – | – | – | – | – | – | >200 | >100 | 39 (≈ 25.3 µg/mL) | >300 | >100 | >200 | >50 | 77 (≈ 50 µg/mL)
7 | CO[C@@H]1[C@@H](OC(N)=O)[C@@H](O)[C@H](Oc2ccc3c(O)c(NC(=O)c4cccc(-c5ccc(Cl)cc5)c4)c(=O)oc3c2C)OC1(C)C [Compound 33] | 18 (≈ 11.5 µg/mL) | > 100 | 0.98 (≈ 0.626 µg/mL) | 18 (≈ 11.5 µg/mL) | > 100 | 20 (≈ 12.8 µg/mL) | 39 (≈ 24.9 µg/mL) | 1.96 (≈ 1.25 µg/mL) | – | – | – | – | – | – | – | –
8 | CO[C@@H]1[C@@H](OC(N)=O)[C@@H](O)[C@H](Oc2ccc3c(O)c(NC(=O)c4cc5ccccc5[nH]4)c(=O)oc3c2C)OC1(C)C [Compound 16] | – | – | – | – | – | – | – | – | >200 | >100 | >100 | >300 | >100 | >200 | >50 | >100
9 | COc1cccc(OC)c1C(=O)Nc1c(O)c2ccc(O[C@@H]3OC(C)(C)[C@H](OC)[C@@H](OC(N)=O)[C@H]3O)c(C)c2oc1=O [Compound 10] | > 200 | > 100 | 85 (≈ 50 µg/mL) | > 300 | > 100 | > 200 | > 50 | > 100 | – | – | – | – | – | – | – | –
